Data taken from patent US7091207B2, “Method of treating myocardial infarction with PDE-5 inhibitors” (Virginia Commonwealth University, priority 2002, dated 2006).
Marks after values point to notes of the source that are not given here.

How the values were obtained:
[1] = test system: neonatal mouse cardiac myocytes; assay type: cell-based; conditions: for effect of channel blocker on the protective effect of sildenafil: 5-hydroxydecanoate 100 μM, HMR1098 30 μM
Description: Neonatal mouse myocytes in culture are incubated with 0.5–5 μM of DOX (in the presence or absence of 1 μM sildenafil) for 18 hours. The cells are then incubated with drug free growth medium for an additional 24 hours. Cytotoxicity of DOX is quantitatively assessed by measuring the percentage of cells killed and the amount of creatine kinase (CK) released into the media. In addition, a trypan blue exclusion assay and propidium iodide nuclear stain are used to quantitate cell death. Since DOX induces cardiomyopathy through the release of reactive oxygen species, lipid peroxidation in the cells is also measured as an index of oxidative damage.
Neonatal mouse cardiac myocyte cultures are used for membrane potential studies. Cells in culture are treated with 0.5–5 μM of DOX (in the presence or absence of 1 μM sildenafil) for 18 hours. The cells are then incubated with drug free growth medium for an additional 24 hours. Additional groups are included where the cells are treated with a mitoKATP channel blocker (5-hydroxydecanoate, 100 μM), surface channel blocker (HMR1098, 30 μM) or cyclosporine, a mitochondrial membrane potential (Ψm) blocker (5 μM). For assessment of apoptosis, the TUNEL assay is used, which is an accurate method for distinguishing apoptosis from necrosis by specifically detecting DNA cleavage and chromatin condensation characteristic of apoptosis. Additionally, positive TUNEL staining directly correlates with the more typical biochemical and morphological aspects of apoptosis. Since an understanding of cell morphology is critical for data interpretation, apoptotic morphology is simultaneously assessed according to accepted scientific criteria previously described (Nor-Avi, 1999). The in situ staining of DNA strand breaks detected by the TUNEL assay along with subsequent morphological observation via epifluorescent, confocal, and electron microscopy, provides significant and reliable data regarding the identification of apoptotic cells, even in tissue samples where apoptosis represents a small segment of the population (Manning 1994). In addition, several other key indicators of apoptosis including annexin-V, cytosolic cytochrome c, caspase 3, caspase 8, as well as poly (ADP-ribose) polymerase cleavage in these groups, are measured. Mitochondrial membrane potential (Ψm) using a fluorescent indicator probe, JC-1 (Molecular Probes, Eugene, Oreg.) is measured.

iNOS vs nNOS = conditions: cited from earlier work
[2] = test system: rabbit heart, ischemia/reperfusion injury; test: In situ rabbit model of myocardial infarction (30 min coronary occlusion, 180 min reperfusion), infarct size by TTC staining; assay type: in vivo; conditions: control rabbits, 5-HD 5 mg/kg IV 10 min prior to ischemia
[3] = Systemic hemodynamics (blood pressure, heart rate, rate pressure product) in rabbits; assay type: in vivo, rabbit; conditions: 5-HD 5 mg/kg IV 10 min prior to ischemia, control rabbits
[4] = test system: mouse heart, global I-R injury; test: Isolated perfused mouse heart (Langendorff), 20 min global ischemia and 30 min reperfusion after in vivo treatment; conditions: saline+1400W; 1400W 10 mg/kg IP 30 minutes before I-R
Description: Adult male outbred ICR mice were supplied by Harlan Inc (Indianapolis, Ind.). Viagra pills (Pfizer Inc) were ground into powder and dissolved in saline. The drug solution was filtered (0.45-μm pore size) before intraperitoneal injection. 1400W, an iNOS inhibitor, was obtained from Alexis. We used an isolated perfused mouse heart model subjected to 20 minutes of global ischemia and 30 minutes of reperfusion (Langendorff mode). Myocardial I-R injury was assessed by measuring infarct size, contractile function, and coronary flow as described previously (Xi, 1999). Twenty-eight mice were randomized into the following 4 groups: (n=6 to 9 per group): (1) saline (0.15 mL IP), (2) sildenafil (0.7 mg/kg IP, equivalent to 50 mg Viagra pill used for patients with erectile dysfunction, given 24 hours before I-R), (3) sildenafil+1400W (10 mg/kg IP, 14 given 30 minutes before I-R), and (4) saline+1400W. Measurement of NOS Isoforms Mice were treated with sildenafil (0.7 mg/kg IP), and their hearts were removed at 15, 30, and 45 minutes and 1, 2, 3, 4, and 24 hours after injection (n=3 per group). Three nontreated hearts were used as controls. Tissue samples were ground under liquid nitrogen and homogenized with TRI Reagent (Molecular Research Center) for extracting total RNA, which was reverse-transcribed into cDNA at 50° C. for 30 minutes using a OneStep reverse transcription (RT)-polymerase chain reaction (PCR) kit from Qiagen. The oligonucleotide primers were synthesized on the basis of published sequences for murine iNOS, eNOS, and GAPDH15 (Integrated DNA Technology). The RT-PCR products were electrophoresed on 1.5% Trisacetate-EDTA agarose gel. The target bands were identified on the basis of their specific size using DNA standards. iNOS and eNOS proteins were measured by Western blots as described previously. 13 In brief, triplicate heart samples were collected 24 hours after saline or sildenafil injection and homogenized in ice-cold RIPA buffer (Upstate Biotechnology). The homogenate was centrifuged at 10,000 g for 10 minutes at 4° C., and supernatant was recovered as the total cellular protein. Total protein (60 μg) from each sample was separated by SDS-PAGE on 10% acrylamide gels, transferred to a polyvinylidine difluoride membrane, and then blocked with 5% nonfat dry milk in Tris-buffered saline. The membrane was subsequently incubated with a rabbit polyclonal antibody (dilution 1:500, Santa Cruz) reacting specifically to iNOS, eNOS, or actin. The secondary antibody was a horseradish peroxidase-conjugated anti-rabbit IgG (1:1000 dilution, Amersham). The membranes were developed using enhanced chemiluminescence and exposed to x-ray film. The mRNA and protein expression were quantified by scanning each of the RT-PCR or Western blot band using a densitometer (Bioquant 98). […]

[5] = test system: DOX-related cardiac complications; conditions: clinical use; cited from earlier work

With `CNC(=S)NS(=O)(=O)c1cc(CCNC(=O)c2cc(Cl)ccc2OC)ccc1OC` [HMR1098] the “effect of channel blocker on the protective effect of sildenafil” value [1] was “not by HMR1098”.
In the case of `CC(=N)NCCCC[C@H](N)C(=O)O.Cl` [L-NIL, L-N-6-(1-iminoethyl)lysine hydrochloride], the “selectivity for iNOS vs nNOS” value (iNOS vs nNOS) is given as “approximately 40 fold”.
In the case of `CCCCCC(O)CCCC(=O)O` (stereo not shown) [5-HD, 5-hydroxydecanoate], the “effect of channel blocker on the protective effect of sildenafil” value [1] was “abolished”, the infarct size [2] was 33.5±1.9 % of risk area and the HR ([3]; 30-min Ischemia) was 185 ± 8 beats/min. For the same compound, the MAP ([3]; 30-min Ischemia) was 95 ± 5^a mmHg, the “RPP (systolic arterial pressure × HR)” value ([3]; 30-min Ischemia) was 19215 ± 999 and the HR ([3]; Baseline) was 171 ± 13^d,e beats/min. The MAP ([3]; Baseline) was 120 ± 4 mmHg, the “RPP (systolic arterial pressure × HR)” value ([3]; Baseline) was 22477 ± 1849 and the HR ([3]; Preischemia) was 178 ± 13 beats/min. For the same compound, the MAP ([3]; Preischemia) was 110 ± 6 mmHg, the “RPP (systolic arterial pressure × HR)” value ([3]; Preischemia) was 20977 ± 1373 and the HR ([3]; Reperfusion (60 min)) was 162 ± 8 beats/min. The MAP ([3]; Reperfusion (60 min)) was 97 ± 5^a mmHg, the “RPP (systolic arterial pressure × HR)” value ([3]; Reperfusion (60 min)) was 17050 ± 1132 and the HR ([3]; Reperfusion (120 min)) was 160 ± 8 beats/min. The MAP ([3]; Reperfusion (120 min)) was 91 ± 5^a mmHg, the “RPP (systolic arterial pressure × HR)” value ([3]; Reperfusion (120 min)) was 15770 ± 984^a and the HR ([3]; Reperfusion (180 min)) was 160 ± 7 beats/min. For the same compound, the MAP ([3]; Reperfusion (180 min)) was 91 ± 7^a mmHg and the “RPP (systolic arterial pressure × HR)” value ([3]; Reperfusion (180 min)) was 16300 ± 1503^a.
For `CSC(N)=NCCC[C@H](N)C(=O)O` [SMT, S-methyl-L-thiocitrulline], the “selectivity for iNOS vs nNOS” value (iNOS vs nNOS) is given as “approximately 40 fold”.
For `COc1cccc2c1C(=O)c1c(O)c3c(c(O)c1C2=O)C[C@@](O)(C(=O)CO)C[C@@H]3O[C@H]1C[C@H](N)[C@H](O)[C@H](C)O1` [DOX, Doxorubicin], the “apoptosis indicators (TUNEL, cytochrome c translocation, caspase-3, PARP cleavage, Ψm dissipation)” value ([1]; 0.5–5 μM DOX for 18 hours) was “TUNEL positivity” and the “necrotic cell death (CK release, uptake of trypan blue)” value ([1]; 0.5–5 μM DOX for 18 hours) was “increased necrotic cell death”.
In the case of `CC(=N)NCc1cccc(CN)c1` [1400W], the infarct size [4] is given as 24.5±1.0% and the “selectivity for iNOS vs nNOS” value (iNOS vs nNOS) is given as “approximately 40 fold”.
For `C[C@@H](CN1CC(=O)NC(=O)C1)N1CC(=O)NC(=O)C1` [dexrazoxane], the “reduction of DOX-related cardiac complications” value [5] is given as 50%.
